Legend:
KB cell = assay: MTS assay, growth inhibition of KB cells; format: cell-based; conditions: Homo sapiens, at 10 μM concentration, incubated for 72 h, read-out: Inhibition rate (%) (growth inhibition rate of MTS assay)
Protocol: MTS assay was performed in determining the growth inhibition of cancer cells. MTS ((3-(4,5-dimethylthiazol-2-yl)-5-(3-carboxymethoxyphenyl)-2-(4-sulfophenyl)-2H-tetrazolium)), in the presence of phenazine methosulfate (PMS) and reductases, produces a formazan product that has an absorbance maximum at 490-500 nm. MTS assays (and closely related MTT assay) are commonly used to measure cell viabilities or survivals.
Briefly, KB/Hela, NCI-H460, A375, Colo205, HCT-116, U937, MCF-7, MDA-MB-231, A549, H1975 cells were seeded into 96-well plate at 4000, 4000, 2000, 2000, 2000 cells/well. After 24 h for attachment, test compound was added into each well and incubated for 72 h. A total of 20 μl of MTS reaction reagent containing the MTS (Promega, Madison, Wis.) and PMS in a ratio of 20:1 was added into each well to react with dehydrogenase enzyme in survival cells. After 3 h, the absorbance at 490 nm was monitored using Emax precision microplate reader (Molecular Devices, Sunnyvale, Calif.).
The growth inhibition rate of MTS assay at KB cell of these compounds (at 10 μM concentration) are list in Table 5.

biotinylated tubulin = assay: Colchicine competitive-binding assay; conditions: at 10 μM concentration, 3H-colchicine; for binding rate (%) (colchicine competitive-binding): left column pair of Table 7; for Inhibition rate (%) (colchicine competitive-binding): right column pair of Table 7
Protocol: The colchicine competitive-binding assay was done by using the Colchicine Site competitive Assay Kit (Cytoskeleton, Inc.), streptavidin-coated yttrium SPA beads(GE Healthcare, Inc.), and ^3H-colchicine(PerkinElmer, Inc.). Briefly, the binding mixture includes 1 μL^3H-labeled ligand (specific activity […]), and 1 μg biotinylated tubulin and 88 μg SPA beads in 200 μL assay buffer. The test compound and ^3H-labeled ligand were added before tubulin. After incubation at 37° C. for 2 hours, the SPA beads were allowed to settle down for 24 hours at room temperature, and scintillation counting was done on the TopCount Microplate Scintillation Counter.

porcine brain tubulin = assay: Tubulin polymerization assay; format: biochemical; conditions: at 10 μM concentration
Protocol: In vitro tubulin polymerization assay was performed by using the Tubulin Polymerization Assay Kit (Cytoskeleton, Inc., Denver, Colo.) in a 96-well format, which used the polymerization of porcine brain tubulin in vitro in the presence of varying concentrations of the test compounds. Fluorescence measurements were obtained at 1-minute intervals over a 31-minute period. Fluorescent measurements were performed using excitation at 365 nm, and emission was measured at 440 nm using a Packard Fusion Alpha Microplate Analyzer. Data were analyzed as relative fluorescent units by GraphPad Prism 5 Demo.

| SMILES | inhibition at 10 µM (KB cell) [%] | binding rate (%) (colchicine competitive-binding) (biotinylated tubulin) | Inhibition rate (%) of tubulin polymerization (porcine brain tubulin) [%] | Inhibition rate (%) (colchicine competitive-binding) (biotinylated tubulin) |
| --- | --- | --- | --- | --- |
| O=C(CCc1ccccc1)Nc1ncc(Cc2ccc3c(c2)OCO3)s1 [Compound 6, N-(5-Benzo[1,3]dioxol-5-ylmethyl-thiazol-2-yl)-3-phenyl-propionamide] | 95.1 | 63.6 |  |  |
| COc1ccc(Cc2cnc(NC(=O)CCc3ccccc3)s2)cc1 [Compound 9, N-[5-(4-Methoxy-benzyl)-thiazol-2-yl]-3-phenyl-propionamide] | 96.1 | 77.5 | 79.0 |  |
| COc1ccc(Cc2cnc(NC(=O)CCc3cccnc3)s2)cc1 [Compound 10, N-[5-(4-Methoxy-benzyl)-thiazol-2-yl]-3-pyridin-3-yl-propionamide] | 94.4 | 88.6 | 88.7 |  |
| COc1ccc(Cc2cnc(NC(=O)CCc3ccc(F)cc3)s2)cc1 [Compound 11, 3-(4-Fluoro-phenyl)-N-[5-(4-methoxy-benzyl)-thiazol-2-yl]-propionamide] | 95.1 | 62.4 |  |  |
| O=C(CCc1ccc(F)cc1)Nc1ncc(Cc2ccc(F)cc2)s1 [Compound 12, N-[5-(4-Fluoro-benzyl)-thiazol-2-yl]-3-(4-fluoro-phenyl)-propionamide] | 96 | 51.2 |  |  |
| COc1ccc2cc(Cc3cnc(NC(=O)CCc4ccc(F)cc4)s3)ccc2c1 [Compound 13, 3-(4-Fluoro-phenyl)-N-[5-(6-methoxy-naphthalen-2-ylmethyl)-thiazol-2-yl]-propionamide] | 94.6 | 60.0 |  |  |
| COc1ccc(Cc2cnc(NC(=O)CCc3cccnc3)s2)cc1OC [Compound 17, N-[5-(3,4-Dimethoxy-benzyl)-thiazol-2-yl]-3-pyridin-3-yl-propionamide] | 95.9 | 76.9 | 65.3 |  |
| O=C(CCc1ccccc1)Nc1ncc(Cc2ccc(C(F)(F)F)cc2)s1 [Compound 47, 3-Phenyl-N-[5-(4-trifluoromethyl-benzyl)-thiazol-2-yl]-propionamide] | 94.5 | 55.4 | 57.2 |  |
| COc1cc(Cc2cnc(NC(=O)CCc3ccccc3)s2)cc(OC)c1OC [Compound 49, 3-Phenyl-N-[5-(3,4,5-trimethoxy-benzyl)-thiazol-2-yl]-propionamide] | 95.1 | 64.9 |  |  |
| COc1ccc(Cc2cnc(NC(=O)CCc3ccccc3)s2)c(OC)c1OC [Compound 52, 3-Phenyl-N-[5-(2,3,4-trimethoxy-benzyl)-thiazol-2-yl]-propionamide] | 94.5 | 75.4 | 51.2 |  |
| COc1ccc(Cc2cnc(NC(=O)CCc3cccnc3)s2)c(OC)c1OC [Compound 53, 3-Pyridin-3-yl-N-[5-(2,3,4-trimethoxy-benzyl)-thiazol-2-yl]-propionamide] | 96.7 | 78.7 | 62.2 |  |
| COc1ccc(Cc2cnc(NC(=O)CCc3ccc(F)cc3)s2)c(OC)c1OC [Compound 54, 3-(4-Fluoro-phenyl)-N-[5-(2,3,4-trimethoxy-benzyl)-thiazol-2-yl]-propionamide] | 96.1 | 73.3 |  |  |
| COc1ccc(Cc2cnc(NC(=O)CCc3ccc(-c4ccccc4)cc3)s2)c(OC)c1OC [Compound 55, 3-Biphenyl-4-yl-N-[5-(2,3,4-trimethoxy-benzyl)-thiazol-2-yl]-propionamide] | 95.1 | 68.8 | 54.9 |  |
| COc1ccc(Cc2cnc(NC(=O)CCc3ccc(C)o3)s2)c(OC)c1OC [Compound 56, 3-(5-Methyl-furan-2-yl)-N-[5-(2,3,4-trimethoxy-benzyl)-thiazol-2-yl]-propionamide] | 94.7 | 88.3 |  |  |
| O=C(CCc1ccccc1)Nc1ncc(-c2ccc(F)cc2)s1 [Compound 58, N-[5-(4-Fluoro-phenyl)-thiazol-2-yl]-3-phenyl-propionamide] | 85.8 |  | 55.1 |  |
| Cc1nc(NC(=O)CCc2ccccc2)sc1-c1ccc(F)cc1 [Compound 59, N-[5-(4-Fluoro-phenyl)-4-methyl-thiazol-2-yl]-3-phenyl-propionamide] | 93.5 | 76.3 |  |  |
| Cc1nc(NC(=O)CCc2ccccc2)sc1Cc1ccc2c(c1)OCO2 [Compound 60, N-(5-Benzo[1,3]dioxol-5-ylmethyl-4-methyl-thiazol-2-yl)-3-phenyl-propionamide] | 95.1 | 64.6 |  |  |
| Cc1nc(NC(=O)CCc2ccc(F)cc2)sc1Cc1ccc2c(c1)OCO2 [Compound 61, N-(5-Benzo[1,3]dioxol-5-ylmethyl-4-methyl-thiazol-2-yl)-3-(4-fluoro-phenyl)-propionamide] | 90.9 | 57.9 |  |  |
| Cc1nc(NC(=O)CCc2cccnc2)sc1Cc1ccc2c(c1)OCO2 [Compound 62, N-(5-Benzo[1,3]dioxol-5-ylmethyl-4-methyl-thiazol-2-yl)-3-pyridin-3-yl-propionamide] | 96 | 55.3 |  |  |
| COc1cccc(CCC(=O)Nc2nc(C)c(Cc3ccc4c(c3)OCO4)s2)c1 [Compound 63, N-(5-Benzo[1,3]dioxol-5-ylmethyl-4-methyl-thiazol-2-yl)-3-(3-methoxy-phenyl)-propionamide] | 95.6 | 63.3 |  |  |
| Cc1ccc(CCC(=O)Nc2ncc(Oc3ccc(F)cc3)s2)o1 [Compound 64, N-[5-(4-Fluoro-phenoxy)-thiazol-2-yl]-3-(5-methyl-furan-2-yl)-propionamide] | 95.9 | 54.4 |  |  |
| O=C(CCc1ccccc1)Nc1ccc(Sc2ccccc2)cn1 [Compound 81, 3-Phenyl-N-(5-phenylsulfanyl-pyridin-2-yl)-propionamide] | 95.1 |  |  | 70.0 |
| Cc1ccc(CCC(=O)Nc2ncc(-n3ccnc3)cc2C)o1 [Compound 87, N-(5-Imidazol-1-yl-3-methyl-pyridin-2-yl)-3-(5-methyl-furan-2-yl)-propionamide] | 93.9 |  |  | 54.6 |
| O=C(/C=C/c1ccccc1)Nc1ncc(-c2ccccc2)cn1 [Compound 93, 3-Phenyl-N-(5-phenyl-pyrimidin-2-yl)-acrylamide] | 96 |  |  | 57.2 |
| O=C(/C=C/c1ccccc1)Nc1ncc(-c2ccc(F)cc2)cn1 [Compound 98, N-[5-(4-Fluoro-phenyl)-pyrimidin-2-yl]-3-phenyl-acrylamide] | 81.9 |  |  | 57.5 |
| COc1cccc(-c2cnc(NC(=O)/C=C/c3ccccc3)nc2)c1OC [Compound 101, N-[5-(2,3-Dimethoxy-phenyl)-pyrimidin-2-yl]-3-phenyl-acrylamide] | 97.5 |  |  | 56.9 |
| Cc1ccc(CCC(=O)Nc2ncc(-c3cccc4ccccc34)cn2)o1 [Compound 103, 3-(5-Methyl-furan-2-yl)-N-(5-naphthalen-1-yl-pyrimidin-2-yl)-propionamide] | 94.1 |  |  | 81.1 |
| O=C(CCc1ccccc1)Nc1ncc(-c2cccc3ccccc23)cn1 [Compound 104, N-(5-Naphthalen-1-yl-pyrimidin-2-yl)-3-phenyl-propionamide] | 96.6 |  |  | 61.3 |
| Cc1cc(-c2ccc(N(C)C)cc2)cnc1NC(=O)CCc1ccccc1 [Compound 119, N-[5-(4-Dimethylamino-phenyl)-3-methyl-pyridin-2-yl]-3-phenyl-propionamide] | 95.1 |  |  | 58.2 |
